The values that follow come from patent US4551538A, “Phenylpyrazolidine acetic acid derivatives” (American Home Products Corporation, priority 1984, dated 1985).

For assay [1], the system named is lipoxygenase. As to conditions: background statement; cited from earlier work.
For assay [2], the system named is AA-induced mouse ear edema. The experiment in a line: arachidonic acid (AA)-induced murine ear edema test. In kind it is in vivo, mouse (Swiss Webster). As to conditions: for % Change from Control, AA ear edema: * p ≤ 0.05. From the text:
(§1) The ability of the compounds of the invention to inhibit the lipoxygenase and cyclooxygenase pathways of arachidonic acid is examined in the in vivo arachidonic acid (AA)-/12-O-tetradecanoylphorbol acetate (TPA)-induced murine ear edema test.
(§2) According to this test, Swiss Webster female mice (Buckshire), approximately 8 weeks old, are placed into plastic boxes in groups of six. Eight groups of mice receive AA topically on the right ear, and another 8 groups receive TPA topically on the right ear. AA and TPA are dissolved in acetone at concentrations of 100 mg/ml and 100 μg/ml respectively. The phlogistics are applied to the right ear by the means of an automatic pipet. Volumes of 10 μl are applied to the inner and outer surfaces of the ear. Each mouse receives either 2 mg/ear AA or 4 μg/ear TPA. The left ear (control) receives acetone delivered in the same manner. Oral and topical dosing regimens are as follows: (1) drugs are given 30 minutes prior to AA treatment, and (2) drugs are given 30 minutes after treatment with TPA.
(§3) Measurements are taken with Oditest calipers, 0-10 mm with 0.01 graduations. The right and left ears are measured after 1 hour AA-induced inflammation and 4 hours after TPA-induced inflammation.
(§4) The difference between right and left ear thickness is calculated and the significance is determined by a one way analysis of variance with Dunnett's comparisons to control (P=0.05). Drug effects are expressed as a percent change from control values: [formula]

Assay [3] has as its system urate-induced canine synovitis. Briefly: urate-induced canine synovitis test. The format is in vivo, dog (mongrel). The note with it: Canis lupus familiaris, read-out: Oral ED50. The procedure:
In this procedure, healthy mongrel dog of either sex weighing between 14-20 kg are adapted to a measuring platform. […] A Hewlett Packard 75C computer then converts voltage into kilogram units (mean pressure reading for 1 minute). This control pressure represents the 100% value in this procedure. Synovitis is induced by injecting 5 mg of sodium urate crystals (5-15μ in length) in 1 ml of 0.9% saline solution into the synovial space of the right or left knee. Readings are taken at 1, 2, 2.5, 3, 3.5, 4, 4.5 and 5 hours after urate administration and calculated as a percentage of control hind paw pressure. […] Dogs are used only once in these experiments to prevent tolerance.
Each dog is placed on the pressure measuring apparatus with its left or right hind paw centered above the load cell, and pressure readings are recorded for one minute. Two or three control readings are averaged and represent control paw pressure. Single pressure readings are taken after sodium urate injection.
Drug effects are expressed as a percentage of control paw pressure which is calculated as follows:
Test reading/Control reading×100
Test reading=Pressure measurement after sodium urate injection and drug or no drug (blank capsule).
Control reading=Mean pressure measurement before sodium urate injection.
A one-way analysis of variance with Dunnett's comparisons to control (α=0.05 and 0.01) was used to determine statistical significance.

In assay [4] the test system is cyclooxygenase. As to conditions: background statement; cited from earlier work.
For assay [5], the system named is arachidonic acid cyclooxygenase oxidation product PGE2. Briefly: inhibition of PGE2 synthesis by rat polymorphonuclear leukocytes. The format is cell-based, rat (Wistar). The note with it: read-out: 50% Inhibitory Concentration (IC50), PGE2. The procedure:
(§5) Peritoneal PMN are obtained from female Wistar rats (150-250 g) that received an i.p. injection of 6% glycogen (10 ml). After 24 hours, rats are killed by CO2 asphyxiation and peritoneal cells are harvested by peritoneal lavage using Ca^++ and Mg^++ free Hanks' balanced salt solution (HBSS). The peritoneal exudate is centrifuged at 400 g for 10 minutes. After centrifugation, the lavaged fluid is removed and the cell pellet is resuspended in HBSS containing Ca^++ and Mg^++ and 10 mM L-cysteine at a concentration of 2×10^7 cells/ml. To 1 ml portions of cell suspension, test drugs or vehicle are added and incubated at 37° C. for 10 minutes. Following this preincubation, the calcium ionophore (10 μM), A23187, is added together with 0.5 μCi [^14 C] arachidonic acid and further incubated for 10 minutes. The reaction is stopped by the addition of ice cold water (3 ml) and acidifying to pH 3.5. Lipoxygenase products are then extracted twice into diethyl ether. The pooled ether extracts are evaporated to dryness under nitrogen and the residue is redissolved in a small volume of methanol and spotted on aluminum backed pre-coated thin layer chromatographic plates. The samples are then co-chromatographed with authentic reference 5-HETE, in the solvent system--hexane:ether:acetic acid (50:50:3). After chromatography, the areas associated with 5-HETE standard are identified by autoradiography, cut out and quantitated by liquid scintillation.
(§6) Results are expressed as % inhibition of [^14 C]5-HETE synthesis. [formula]
However, in order to determine cyclooxygenase activity, the samples are cochromatographed with authentic reference PGE2 in the solvent system ethyl acetate:formic acid (80:1) and the upper phase of ethyl acetate:isoctane:acetic acid:water (110:50:20:100). After chromatography, the areas associated with PGE2 standard are identified by autoradiography, cut out and quantitated by liquid scintillation techniques.

Assay [6] has as its system TPA-induced mouse ear edema. The experiment in a line: 12-O-tetradecanoylphorbol acetate (TPA)-induced murine ear edema test. In kind it is in vivo, mouse (Swiss Webster). The note with it: for % Change from Control, TPA ear edema: * p ≤ 0.05.
Description: as §1, §2, §3, §4

For assay [7], the system named is acute inflammatory response (carrageenan rat paw edema). Briefly: carrageenan rat paw edema test. In kind it is in vivo, rat (Sprague-Dawley). The note with it: for ED50: Rattus norvegicus, po, 3 h, read-out: ED50, paw edema; for % Inhibition of paw edema: 200 mg/kg perorally, 3 h reading; for profile of activity in carrageenan rat paw edema test: in vivo. The procedure: In this test, male Sprague-Dawley (Charles River) rats weighing 140-180 gm, in groups of 6 animals, are injected subcutaneously in the right paw with 0.1 ml of 1% carrageenan at zero time. Mercury plethysmographic readings (ml) of the paw are made at zero time and 3 hours later. Drugs are suspended or dissolved in 0.5% methylcellulose and given perorally one hour prior to carrageenan. The increase in paw volume (edema in ml) produced by the inflammatory agent, carrageenan, is measured.
Unpaired Student's t-test is used to determine statistical significance.
On the technique in general: In the carrageenan paw model, swelling and tenderness develop within hours.

Assay [8] relates to phenylbenzoquinone-induced writhing. The experiment in a line: phenylbenzoquinone-induced writhing test. The format is in vivo, mouse (CF-1). The protocol: In this procedure, test compound or vehicle is administered at various doses to ten male CF-1 mice, weighing 20-25 g, per dose level. The animals then receive intraperitoneal injection with 0.25 ml of the writhing agonist (a 0.02% solution of benzoquinone) 5 minutes before the beginning of a pre-selected, 10-minute observation period. Typical observation periods include 10 to 20, 25 to 35, 40 to 50 and 55 to 65 minutes following administration of the test compound. The mice are observed during the observation period and the total numbers of writhes are determined for each mouse.

The test system of assay [9] is arachidonic acid lipoxygenase oxidation product 5-HETE. The experiment in a line: inhibition of 5-HETE synthesis by rat glycogen-elicited polymorphonuclear leukocytes. In kind it is cell-based, rat (Wistar). The note with it: Leukocyte, read-out: 50% Inhibitory Concentration of (IC50) 5-HETE. The procedure:
The assay of this Example measures the ability of the compounds of the invention to inhibit the synthesis of 5-HETE by rat glycogen-elicited polymorphonuclear leukocytes.
The assay is carried out as follows:
as §5, §6

The mark [10] stands for this setting: rat PMN, A23187 10 μM, [14C] arachidonic acid.
The mark [11] stands for this setting: Leukocyte, rat PMN, A23187 10 μM, [14C] arachidonic acid.
Where [12] appears, read: 200 mg/kg; Control = 15.5; * p ≤ 0.05.

Values joined by “and” are separate entries in the source; they are usually repeats but may differ in a detail not shown here. Equal entries are not always repeated. Where two headings read alike, the source gives them in different places.

By ED50 is commonly meant the dose that gives a 50% effect, or the effect in half of the subjects.

For `NC1=NN(c2cccc(C(F)(F)F)c2)CC1` [BW755C, 3-amino-1-[m-(trifluoromethyl)phenyl]-2-pyrazoline, reference compound], the “inhibition of lipoxygenase activity” value in assay [1] was “inhibitors of both cyclooxygenase and lipoxygenase activity”. Also, the 50% effective dose (ED50) came out at 65 mg/kg in assay [2] (Mus musculus, 1 h, oral); 1.5 mg/kg in [3] (oral, 2 h after urate); 88 mg/kg in assay [6] (Mus musculus, 4 h, oral); 72 mg/kg in [7] (perorally, 1 h prior to carrageenan); 100 mg/kg in assay [8] (Mus musculus; read-out: ED50, writhing). In [4], the “inhibition of cyclooxygenase activity” value was “inhibitors of both cyclooxygenase and lipoxygenase activity”. Also, the IC50 in assay [5] (Rattus norvegicus, Leukocyte) was 25 µM; in assay [9] (Rattus norvegicus), 43 µM.

With `O=C(O)C(O)N1C(=O)CCN1c1cccc(C(F)(F)F)c1` (stereo not drawn) [Example 1, α-Hydroxy-5-oxo-2-[3-(trifluoromethyl)phenyl]-1-pyrazolidine acetic acid], the “% Change from Control, AA ear edema” value in assay [2] (topical, 1.0 mg/ear) is -83% and -74%. The IC50 in [5] (setting [10]) was less than 50 µM.

Turning to `O=C(O)C(O)N1C(=O)CCN1c1ccccc1` (stereo not drawn) [Example 2, α-Hydroxy-5-oxo-2-phenyl-1-pyrazolidine acetic acid], the “% Change from Control, AA ear edema” value is reported as -30% in assay [2] (oral, 100 mg/kg, 1 h after AA); -21% in assay [2] (topical, 0.1 mg/ear); -26% in [2] (topical, 0.33 mg/ear); -54% in assay [2] (topical, 1.0 mg/ear). Also, the ED50 in [3] (oral, 2 h after urate) came out at 5 mg/kg. In addition, the “% Change from Control, TPA ear edema” value in assay [6] (oral, 100 mg/kg, 4 h after TPA) is on record as -8%; in assay [6] (topical, 0.1 mg/ear), -12%; in assay [6] (topical, 0.33 mg/ear), -31%; in assay [6] (topical, 1.0 mg/ear) it was -23%. Also, the “% Inhibition of paw edema” value in assay [7] (1 h prior to carrageenan) turned out to be 46%. The “profile of activity in carrageenan rat paw edema test” value in [7] is given as “a profile of activity similar to that of phenidone”. The results for the “Mean No. of Writhes” value in [8] (100 mg/kg; Control = 5.1) and in assay [8] (133 mg/kg; Control = 15.5; * p ≤ 0.05) were 3.5 and 3.2, respectively. In [9] (setting [10]), the IC50 lay within 3 to 5 µM.

For `O=C(O)C(O)N1C(=O)CCN1c1cccc(Cl)c1` (stereo not drawn) [Example 3, 2-(m-Chlorophenyl)-α-hydroxy-5-oxo-1-pyrazolidine acetic acid], the “% Change from Control, AA ear edema” value in assay [2] (oral, 50 mg/kg, 1 h after AA) was -5%. Further, the results for the IC50 in assay [5] (setting [11]) and in assay [9] (setting [10]) were 110 µM and 2 to 5 µM, respectively. For the same molecule, in [6] (oral, 50 mg/kg, 4 h after TPA), the “% Change from Control, TPA ear edema” value is -8%. Besides, the “% Inhibition of paw edema” value in assay [7] (1 h prior to carrageenan) came to 29%.

For `O=C(O)C(O)N1C(=O)CCN1c1cccc(F)c1` (stereo not drawn) [Example 4, 2-(3-Fluorophenyl)-α-hydroxy-5-oxo-1-pyrazolidine acetic acid], the “% Change from Control, AA ear edema” value in assay [2] (oral, 100 mg/kg, 1 h after AA) was -11%; in assay [2] (topical, 0.1 mg/ear), -27%; in assay [2] (topical, 0.33 mg/ear), -38%; in [2] (topical, 1.0 mg/ear), -63%. Also, the “% Change from Control, TPA ear edema” value in [6] (oral, 50 mg/kg, 4 h after TPA) is listed as 0%; in assay [6] (oral, 100 mg/kg, 4 h after TPA) it was -27%; in assay [6] (topical, 0.1 mg/ear) it was -10%; in assay [6] (topical, 0.33 mg/ear), -23%; in [6] (topical, 1.0 mg/ear), -45%. Also, the “% Inhibition of paw edema” value in assay [7] (1 h prior to carrageenan) is 44%. In addition, the “profile of activity in carrageenan rat paw edema test” value in assay [7] was “a profile of activity similar to that of phenidone”. Further, the “Mean No. of Writhes” value is on record as 3.8 in assay [8] (100 mg/kg; Control = 4.5) and 1.7 in assay [8] (setting [12]). For the same molecule, the IC50 in assay [9] (setting [10]) was 5 to 13 µM.

On to `O=C(O)C(O)N1C(=O)CCN1c1ccc(Cl)cc1` (stereo not drawn) [Example 5, 2-(4-Chlorophenyl)-α-hydroxy-5-oxo-1-pyrazolidine acetic acid], for which the “% Change from Control, AA ear edema” value in [2] (oral, 50 mg/kg, 1 h after AA) is recorded as -22%. Also, the results for the IC50 in [5] (setting [11]) and in assay [9] (setting [10]) were 140 µM and 2 to 3 µM, respectively. Moreover, in assay [6] (oral, 50 mg/kg, 4 h after TPA), the “% Change from Control, TPA ear edema” value was -8%. In addition, the “% Inhibition of paw edema” value in [7] (1 h prior to carrageenan) is on record as 30%.

In the case of `O=C(O)C(O)N1C(=O)CCN1c1cccc([N+](=O)[O-])c1` (stereo not drawn) [Example 6, α-Hydroxy-5-oxo-2-(3-nitrophenyl)-1-pyrazolidine acetic acid], the “% Change from Control, AA ear edema” value in assay [2] (oral, 100 mg/kg, 1 h after AA) is given as “+4%”. Besides, in [6] (oral, 100 mg/kg, 4 h after TPA), the “% Change from Control, TPA ear edema” value is recorded as -23%. Further, in assay [9] (setting [10]), the IC50 is less than 50 µM.

With `CC(=O)Oc1ccccc1C(=O)O` [aspirin, reference compound], in assay [8] (setting [12]), the “Mean No. of Writhes” value is reported as 6.6.

`COc1ccc2c(c1)c(CC(=O)O)c(C)n2C(=O)c1ccc(Cl)cc1` [indomethacin, reference compound]: in [2] (oral, 10 mg/kg), the “activity in AA ear edema” value is recorded as “NA(10)”. Besides, the “ED50, AA ear edema” value in [2] (topical) is recorded as 0.1 mg/ear. In addition, the ED50 in assay [3] (po, 2 h) was found to be 0.3 mg/kg; in [7], 5.6 mg/kg; in [8] (Mus musculus, read-out: ED50, writhing), 10 mg/kg. Also, the “activity in TPA ear edema” value in assay [6] (oral, 10 mg/kg) is recorded as “NA(10)”. Besides, the “ED50, TPA ear edema” value in assay [6] (topical) was found to be 0.08 mg/ear.
